From patent publication US4563468A, “Chemotherapeutic agents” (Burroughs Wellcome Co., priority 1979, dated 1986)
pEC50: −log10 of the molar value.

Assays:
rhinovirus [1] = experiment: plaque reduction (PR) test; assay type: cell-based; settings: Enterovirus; 50% of the effective dose estimated from dose response curve; plaque numbers as percentages of a control; monolayer cell culture, compound in nutrient agarose overlay; read-out: PR(ED50)
Description: Activity may be detected by the plaque inhibition (PI) test and measured by the plaque reduction (PR) test. Both assays involve the formation of a monolayer cell culture in a petri dish followed by infection with a virus suspension, and then overlaying the culture with nutrient agarose in the form of a gel. This gel ensures that there is no spread of virus throughout the culture and thus areas of localised cell destruction or plaques are formed. Detectable activity is measured with the plaque reduction assay. A range of concentrations of compound of known molarity are incorporated in the nutrient agarose overlay. Plaque suppression is proportional to compound concentration. Plaque numbers are expressed as percentages of a control, and a dose response curve may be drawn. From this curve 50% of the effective dose (ED50) may be estimated.

rhinovirus [2] = experiment: Intranasal Administration-Simulation in vitro (plaque inhibition, compound on petri dish lid); assay type: cell-based; settings: 1 μg in ethanol applied to petri dish lids, ethanol evaporated; cell sheet covered with agarose gel
Description: Activity may be detected by the plaque inhibition (PI) test and measured by the plaque reduction (PR) test. Both assays involve the formation of a monolayer cell culture in a petri dish followed by infection with a virus suspension, and then overlaying the culture with nutrient agarose in the form of a gel. This gel ensures that there is no spread of virus throughout the culture and thus areas of localised cell destruction or plaques are formed. In the plaque inhibition test a filter paper disc which holds 0.01 ml when impregnated with a solution of compound is placed on top of the agarose gel. The compound may then diffuse throughout the gel so that its greatest concentration will be around the disc and its lowest concentration towards the periphery of the petri dish. The efficacy of the compound may be detected by observing the zone of inhibition of plaque formation. Petri dishes were prepared, as for the plaque inhibition test and the confluent sheet of cells was covered with a layer of agarose gel. The compound, 2-(3-pyridyl)chroman (1 μg) was dissolved in ethanol, and applied to the lids of the petri dishes. When the ethanol had evaporated, leaving the compound spread over the inside of the lids, these were replaced on the petri dishes.

Row | pEC50 (rhinovirus [1]) | Structure (SMILES) | inhibition of plaque formulation (rhinovirus [2])
1 | 7.38 | Clc1ccc2c(c1)CCC(c1cccnc1)O2 (stereo not shown) [6-chloro-2-(3-pyridyl)chroman] | –
2 | 6.41 | c1cncc(C2CCc3ccccc3O2)c1 (stereo not shown) [2-(3-pyridyl)chroman] | total inhibition
3 | 5.96 | [O-][n+]1cccc(C2CCc3ccccc3O2)c1 (racemic) [2-(3-pyridyl)chroman N--oxide, 2-(3-pyridyl)chroman N-oxide] | –
